GI50 and TGI data for twelve molecules are collected here from PubChem BioAssay (NCI).

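Test compounds were applied to cells in 96-well plates for 48 hours at 5 doses. GI50 marks 50% less growth. Definition used: TGI = concentration required for complete inhibition of growth.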

Among the test systems are TK-10 renal; HCT-116 colon; UACC-62 melanoma; SK-MEL-5 melanoma; RXF 393 renal; T-47D breast; HOP-62 NSCLC.
Assay in all cases: NCI anticancer screen, dose series, 48 h

On to `c1ccc2c(c1)ccc1c3ccccc3ccc21`, for which the GI50 in the experiment on TK-10 renal, with HCT-116 colon, in the experiment on UACC-62 melanoma, in the experiment on SK-MEL-5 melanoma, in the experiment on RXF 393 renal and in the experiment with T-47D breast was above 50 µM each time. Also, in the experiment on HOP-62 NSCLC, the GI50 was above 50 µM. Besides, the TGI in the experiment with TK-10 renal, in the experiment on HCT-116 colon, in the experiment on UACC-62 melanoma, with SK-MEL-5 melanoma, in the experiment on RXF 393 renal and in the experiment with T-47D breast was above 50 µM throughout. Further, the TGI with HOP-62 NSCLC is above 50 µM.

On to `Cc1ccccc1NC(=O)c1sc2nc3c(cc2c1N)C(=O)CCC3`, for which the GI50 with TK-10 renal is 4.05 µM; in the experiment on HCT-116 colon it was 3.56 µM; with UACC-62 melanoma, 0.999 µM; in the experiment with SK-MEL-5 melanoma it was 0.613 µM; with RXF 393 renal, 1.62 µM; with T-47D breast, 4.81 µM. Further, in the experiment on HOP-62 NSCLC, the GI50 was 7.28 µM. The TGI is above 100 µM with TK-10 renal; above 100 µM in the experiment with HCT-116 colon; above 100 µM with UACC-62 melanoma; 11.6 µM with SK-MEL-5 melanoma; 5.65 µM in the experiment with RXF 393 renal; above 100 µM in the experiment on T-47D breast. The molecule further displayed a TGI in the experiment with HOP-62 NSCLC above 100 µM.

Regarding `N#CC(=S)Nc1ccc(F)cc1`, the TGI in the experiment with TK-10 renal was above 100 µM; in the experiment with HCT-116 colon, above 100 µM; with UACC-62 melanoma it was above 100 µM; in the experiment on SK-MEL-5 melanoma, 75.8 µM; with RXF 393 renal, above 100 µM; with T-47D breast, above 100 µM. This molecule showed a TGI in the experiment on HOP-62 NSCLC above 100 µM.

With `CC1(C)CC[C@]2(C(=O)O)CC[C@]3(C)[C@H](CC[C@@H]4[C@@]5(C)CCC(=O)C(C)(C)[C@@H]5CC[C@]43C)[C@H]2[C@H]1OC(=O)C(F)(F)F`, the GI50 is 16.9 µM in the experiment with TK-10 renal; 4.8 µM in the experiment on HCT-116 colon; 6.66 µM in the experiment with UACC-62 melanoma; 8.11 µM with SK-MEL-5 melanoma; 11.1 µM in the experiment with RXF 393 renal; 3.84 µM in the experiment with T-47D breast. Further, the GI50 in the experiment on HOP-62 NSCLC was 13.2 µM. Further, the TGI is 31.8 µM in the experiment on TK-10 renal; 17.8 µM in the experiment on HCT-116 colon; 20.3 µM in the experiment with UACC-62 melanoma; 20.6 µM with SK-MEL-5 melanoma; 23.8 µM in the experiment on RXF 393 renal; 23.9 µM in the experiment with T-47D breast. Further, in the experiment with HOP-62 NSCLC, the TGI amounted to 27.8 µM.

Regarding `CC(C)(C)n1cc(-c2ccnc(NCCNS(=O)(=O)c3cccc4ccccc34)c2)c(-c2cccc(F)c2)n1`, the GI50 in the experiment on TK-10 renal is 18.3 µM; in the experiment with HCT-116 colon it was 4.62 µM; with UACC-62 melanoma, 17.3 µM; in the experiment on SK-MEL-5 melanoma, 11.9 µM; in the experiment on RXF 393 renal it was 12.4 µM; in the experiment with T-47D breast it was 4.22 µM. In the experiment with HOP-62 NSCLC, the GI50 is 17.2 µM. The TGI turned out to be 40.5 µM with TK-10 renal; 19.2 µM in the experiment with HCT-116 colon; 47.7 µM in the experiment with UACC-62 melanoma; 24.9 µM in the experiment on SK-MEL-5 melanoma; 30.2 µM in the experiment on RXF 393 renal; 47.8 µM in the experiment with T-47D breast. The TGI with HOP-62 NSCLC worked out at 46.3 µM.

For the molecule `CC(C)[C@@H](CS(=O)(=O)C(C)C)N1C(=O)[C@@](C)(CC(=O)O)C[C@H](c2cccc(Cl)c2)[C@H]1c1ccc(Cl)cc1`, the GI50 was 28.2 µM with TK-10 renal; 0.454 µM in the experiment on HCT-116 colon; 0.333 µM in the experiment with UACC-62 melanoma; 1.96 µM with SK-MEL-5 melanoma; 19.5 µM with RXF 393 renal; 7.91 µM with T-47D breast. Also, the GI50 with HOP-62 NSCLC was 17.2 µM. Also, the TGI with TK-10 renal was 97 µM; in the experiment with HCT-116 colon it was 17.2 µM; in the experiment with UACC-62 melanoma, 11.3 µM; in the experiment on SK-MEL-5 melanoma, 17.2 µM; with RXF 393 renal it was 67 µM; with T-47D breast it was above 92 µM. This molecule came in with a TGI in the experiment on HOP-62 NSCLC of 56.7 µM.

Take `Clc1ccc(Nc2nc3ccccc3c3occc23)cc1`: the GI50 is 4.99 µM in the experiment on TK-10 renal; 8.74 µM in the experiment on HCT-116 colon; 8.1 µM in the experiment with UACC-62 melanoma; 7.52 µM in the experiment with SK-MEL-5 melanoma; 8.4 µM in the experiment on RXF 393 renal; 1.52 µM in the experiment with T-47D breast. Besides, in the experiment with HOP-62 NSCLC, the GI50 is 9.19 µM. The TGI in the experiment on TK-10 renal was found to be 11 µM; in the experiment on HCT-116 colon, 15.7 µM; in the experiment with UACC-62 melanoma it was 18.3 µM; in the experiment on SK-MEL-5 melanoma it was 14.1 µM; in the experiment with RXF 393 renal, 16.9 µM; in the experiment with T-47D breast, 11.3 µM. In addition, the TGI with HOP-62 NSCLC came out at 17.3 µM.

Turning to `COc1ccc(Nc2c[nH]c(=O)[nH]c2=O)cc1`, the TGI in the experiment with TK-10 renal, with HCT-116 colon, with UACC-62 melanoma, in the experiment with SK-MEL-5 melanoma, in the experiment on RXF 393 renal and with T-47D breast was above 100 µM in each case. This molecule also returned a TGI in the experiment with HOP-62 NSCLC above 100 µM.

As for `CC(C)(CCC(C)(C)c1ccccc1)c1ccccc1`, the TGI in the experiment on TK-10 renal was 46.4 µM; in the experiment with HCT-116 colon, 29.4 µM; in the experiment on UACC-62 melanoma, 41.4 µM; with SK-MEL-5 melanoma, 28.5 µM; in the experiment on RXF 393 renal, 27.5 µM; in the experiment on T-47D breast it was 36.6 µM. In the experiment with HOP-62 NSCLC, this molecule showed a TGI of 35.4 µM.

Take `CC(C)(C)c1nnc2n(c1=O)N=CC(c1ccc(Br)cc1)S2` (stereo not given): the GI50 with TK-10 renal was 34.7 µM; in the experiment on HCT-116 colon, 23.9 µM; in the experiment on UACC-62 melanoma, 17.5 µM; with SK-MEL-5 melanoma it was 18.6 µM; with RXF 393 renal, 23.6 µM; with T-47D breast it was 23.8 µM. Further, the GI50 in the experiment with HOP-62 NSCLC is 37.5 µM. Further, the TGI in the experiment with TK-10 renal is above 100 µM; in the experiment on HCT-116 colon, 50.9 µM; in the experiment on UACC-62 melanoma, 32.7 µM; with SK-MEL-5 melanoma, 38.3 µM; with RXF 393 renal it was 82.5 µM; in the experiment with T-47D breast, above 100 µM. The molecule further registered a TGI in the experiment on HOP-62 NSCLC above 100 µM.

For `CN1CCN(c2cc(Nc3cc(C4CC4)[nH]n3)nc(Nc3ccc(CC(=O)NCc4cccc(F)c4)cc3)n2)CC1`, the GI50 with TK-10 renal is 2.92 µM; in the experiment on HCT-116 colon, 0.211 µM; in the experiment with UACC-62 melanoma, 1.62 µM; with SK-MEL-5 melanoma, 1.42 µM; in the experiment on RXF 393 renal, 0.404 µM; with T-47D breast, 2.27 µM. Besides, in the experiment on HOP-62 NSCLC, the GI50 was 0.754 µM. The TGI in the experiment with TK-10 renal is 16.1 µM; with HCT-116 colon, 6.87 µM; with UACC-62 melanoma it was 16.2 µM; in the experiment on SK-MEL-5 melanoma it was 3.08 µM; in the experiment on RXF 393 renal, 1.71 µM; in the experiment on T-47D breast, 13.8 µM. Further, the TGI in the experiment on HOP-62 NSCLC stood at 14.4 µM.

With `OC(C(=Nc1ccccc1)c1ccccc1)c1ccccc1` (stereo not given), the TGI with TK-10 renal is 9.53 µM; with HCT-116 colon, 31.8 µM; in the experiment on UACC-62 melanoma, 15 µM; with SK-MEL-5 melanoma it was 5.87 µM; in the experiment with RXF 393 renal, 26.1 µM; in the experiment with T-47D breast it was above 100 µM. In the experiment on HOP-62 NSCLC, this molecule yielded a TGI of 39.8 µM.
